# In article PMC10408569, “Recruitment of hexahydroquinoline as anticancer scaffold targeting inhibition of wild and mutants EGFR (EGFR^WT, EGFR^T790M, and EGFR^L858R)” (Journal of Enzyme Inhibition and Medicinal Chemistry, 2023):
# Tests used:
# A498 = assay: NCI-60 anticancer screening (SRB); assay type: cell-based; settings: Homo sapiens; A498, renal cancer; one dose 10 μM; read-out: Growth Inhibition Percentage (GI %)
# MCF7 = assay: NCI-60 anticancer screening (SRB); assay type: cell-based; settings: Homo sapiens; MCF7, breast cancer; one dose 10 μM; read-out: Growth Inhibition Percentage (GI %)
# PC-3 = assay: NCI-60 anticancer screening (SRB); assay type: cell-based; settings: Homo sapiens; PC-3, prostate cancer; one dose 10 μM; read-out: Growth Inhibition Percentage (GI %)
# IGROV1 = assay: NCI-60 anticancer screening (SRB); assay type: cell-based; settings: Homo sapiens, IGROV-1; IGROV1, ovarian cancer; one dose 10 μM; read-out: Growth Inhibition Percentage (GI %)
# HOP-92 = assay: NCI-60 anticancer screening (SRB); assay type: cell-based; settings: Homo sapiens; HOP-92, NSC lung cancer; one dose 10 μM; read-out: Growth Inhibition Percentage (GI %)
# SW-620 = assay: NCI-60 anticancer screening (SRB); assay type: cell-based; settings: Homo sapiens; SW-620, colon cancer; one dose 10 μM; read-out: Growth Inhibition Percentage (GI %)
# SK-MEL-2 = assay: NCI-60 anticancer screening (SRB); assay type: cell-based; settings: Homo sapiens; SK-MEL-2, melanoma; one dose 10 μM; read-out: Growth Inhibition Percentage (GI %)
# LOX IMVI = assay: NCI-60 anticancer screening (SRB); assay type: cell-based; settings: Homo sapiens, melanoma, one dose 10 μM, read-out: Growth Inhibition Percentage (GI %)
# OVCAR-3 = assay: NCI-60 anticancer screening (SRB); assay type: cell-based; settings: Homo sapiens; OVCAR-3, ovarian cancer; one dose 10 μM; read-out: Growth Inhibition Percentage (GI %)
# MDA-MB-468 = assay: NCI-60 anticancer screening (SRB); assay type: cell-based; settings: Homo sapiens; MDA-MB-468, breast cancer; one dose 10 μM; read-out: Growth Inhibition Percentage (GI %)
# SR = assay: NCI-60 anticancer screening (SRB); assay type: cell-based; settings: Homo sapiens, leukemia, one dose 10 μM, read-out: Growth Inhibition Percentage (GI %)
# ACHN = assay: NCI-60 anticancer screening (SRB); assay type: cell-based; settings: Homo sapiens, renal cancer, one dose 10 μM, read-out: Growth Inhibition Percentage (GI %)
# OVCAR-8 = assay: NCI-60 anticancer screening (SRB); assay type: cell-based; settings: Homo sapiens; OVCAR-8, ovarian cancer; one dose 10 μM; read-out: Growth Inhibition Percentage (GI %)
# COLO 205 = assay: NCI-60 anticancer screening (SRB); assay type: cell-based; settings: Homo sapiens; COLO 205, colon cancer; one dose 10 μM; read-out: Growth Inhibition Percentage (GI %)
# CCRF-CEM = assay: NCI-60 anticancer screening (SRB); assay type: cell-based; settings: Homo sapiens, leukemia, one dose 10 μM, read-out: Growth Inhibition Percentage (GI %)
# SK-OV-3 = assay: NCI-60 anticancer screening (SRB); assay type: cell-based; settings: Homo sapiens; SK-OV-3, ovarian cancer; one dose 10 μM; read-out: Growth Inhibition Percentage (GI %)
# OVCAR-4 = assay: NCI-60 anticancer screening (SRB); assay type: cell-based; settings: Homo sapiens; OVCAR-4, ovarian cancer; one dose 10 μM; read-out: Growth Inhibition Percentage (GI %)
# OVCAR-5 = assay: NCI-60 anticancer screening (SRB); assay type: cell-based; settings: Homo sapiens; OVCAR-5, ovarian cancer; one dose 10 μM; read-out: Growth Inhibition Percentage (GI %)
# UO-31 = assay: NCI-60 anticancer screening (SRB); assay type: cell-based; settings: Homo sapiens; UO-31, renal cancer; one dose 10 μM; read-out: Growth Inhibition Percentage (GI %)
# HS 578T = assay: NCI-60 anticancer screening (SRB); assay type: cell-based; settings: Homo sapiens; HS 578T, breast cancer; one dose 10 μM; read-out: Growth Inhibition Percentage (GI %)
# BT-549 = assay: NCI-60 anticancer screening (SRB); assay type: cell-based; settings: Homo sapiens; BT-549, breast cancer; one dose 10 μM; read-out: Growth Inhibition Percentage (GI %)
# UACC-257 = assay: NCI-60 anticancer screening (SRB); assay type: cell-based; settings: Homo sapiens; UACC-257, melanoma; one dose 10 μM; read-out: Growth Inhibition Percentage (GI %)
# MOLT-4 = assay: NCI-60 anticancer screening (SRB); assay type: cell-based; settings: Homo sapiens; MOLT-4, leukemia; one dose 10 μM; read-out: Growth Inhibition Percentage (GI %)
# U251 = assay: NCI-60 anticancer screening (SRB); assay type: cell-based; settings: Homo sapiens, U-251; U251, CNS cancer; one dose 10 μM; read-out: Growth Inhibition Percentage (GI %)
# HCT-116 = assay: NCI-60 anticancer screening (SRB); assay type: cell-based; settings: Homo sapiens; HCT-116, colon cancer; one dose 10 μM; read-out: Growth Inhibition Percentage (GI %)
# NCI-H226 = assay: NCI-60 anticancer screening (SRB); assay type: cell-based; settings: Homo sapiens; NCI-H226, NSC lung cancer; one dose 10 μM; read-out: Growth Inhibition Percentage (GI %)
# K-562 = assay: NCI-60 anticancer screening (SRB); assay type: cell-based; settings: Homo sapiens, K562; K-562, leukemia; one dose 10 μM; read-out: Growth Inhibition Percentage (GI %)
# MALME-3M = assay: NCI-60 anticancer screening (SRB); assay type: cell-based; settings: Homo sapiens, melanoma, one dose 10 μM, read-out: Growth Inhibition Percentage (GI %)
structure (smiles),measurement,setting,value
"CCOC(=O)C1=C(N)N(c2ccc(Cl)cc2)C2=C(C(=O)CC(C)(C)C2)C1c1ccc(OC)cc1 (racemic) [8h, (±)-Ethyl 2-amino-1–(4-chlorophenyl)-4–(4-methoxyphenyl)-7,7-dimethyl-5-oxo-1,4,5,6,7,8-hexahydroquinoline-3-carboxylate]",inhibition at 10 µM,A498,< 10%
same,inhibition at 10 µM,MCF7,< 10%
same,inhibition at 10 µM,PC-3,< 10%
same,inhibition at 10 µM,IGROV1,< 10%
same,inhibition at 10 µM,HOP-92,< 10%
same,inhibition at 10 µM,SW-620,< 10%
same,inhibition at 10 µM,SK-MEL-2,< 10%
same,inhibition at 10 µM,LOX IMVI,< 10%
same,inhibition at 10 µM,OVCAR-3,< 10%
same,inhibition at 10 µM,MDA-MB-468,< 10%
same,inhibition at 10 µM,SR,< 10%
same,inhibition at 10 µM,ACHN,< 10%
same,inhibition at 10 µM,OVCAR-8,< 10%
same,inhibition at 10 µM,COLO 205,< 10%
same,inhibition at 10 µM,CCRF-CEM,< 10%
same,inhibition at 10 µM,SK-OV-3,< 10%
same,inhibition at 10 µM,OVCAR-4,< 10%
same,inhibition at 10 µM,OVCAR-5,< 10%
same,inhibition at 10 µM,UO-31,< 10%
same,inhibition at 10 µM,HS 578T,< 10%
same,melting point,,255 to 257 °C
same,inhibition at 10 µM,BT-549,25%
same,inhibition at 10 µM,UACC-257,< 10%
same,inhibition at 10 µM,MOLT-4,< 10%
same,inhibition at 10 µM,U251,< 10%
same,inhibition at 10 µM,HCT-116,< 10%
same,inhibition at 10 µM,NCI-H226,< 10%
same,inhibition at 10 µM,K-562,< 10%
same,inhibition at 10 µM,MALME-3M,< 10%
"CCOC(=O)C1=C(N)N(c2ccccc2)C2=C(C(=O)CC(C)(C)C2)C1c1ccccc1OC (racemic) [6g, (±)-Ethyl 2-amino-4–(2-methoxyphenyl)-7,7-dimethyl-5-oxo-1-phenyl-1,4,5,6,7,8-hexahydroquinoline-3-carboxylate]",inhibition at 10 µM,A498,< 10%
same,inhibition at 10 µM,MCF7,< 10%
same,inhibition at 10 µM,PC-3,11%
same,inhibition at 10 µM,IGROV1,< 10%
same,inhibition at 10 µM,HOP-92,< 10%
same,inhibition at 10 µM,SW-620,< 10%
same,inhibition at 10 µM,SK-MEL-2,< 10%
same,inhibition at 10 µM,LOX IMVI,< 10%
same,inhibition at 10 µM,OVCAR-3,< 10%
same,inhibition at 10 µM,MDA-MB-468,11%
same,inhibition at 10 µM,SR,< 10%
same,inhibition at 10 µM,ACHN,< 10%
same,inhibition at 10 µM,OVCAR-8,< 10%
same,inhibition at 10 µM,COLO 205,< 10%
same,inhibition at 10 µM,CCRF-CEM,< 10%
same,inhibition at 10 µM,SK-OV-3,< 10%
same,inhibition at 10 µM,OVCAR-4,< 10%
same,inhibition at 10 µM,OVCAR-5,< 10%
same,inhibition at 10 µM,UO-31,26%
same,inhibition at 10 µM,HS 578T,< 10%
same,melting point,,243 to 245 °C
same,inhibition at 10 µM,BT-549,< 10%
same,inhibition at 10 µM,UACC-257,< 10%
same,inhibition at 10 µM,MOLT-4,< 10%
same,inhibition at 10 µM,U251,< 10%
same,inhibition at 10 µM,HCT-116,< 10%
same,inhibition at 10 µM,NCI-H226,< 10%
same,inhibition at 10 µM,K-562,< 10%
same,inhibition at 10 µM,MALME-3M,< 10%
"CCOC(=O)C1=C(N)N(c2ccccc2)C2=C(C(=O)CC(C)(C)C2)C1c1ccc([N+](=O)[O-])cc1 (racemic) [8i, (±)-Ethyl 2-amino-4–(4-nitrophenyl)-7,7-dimethyl-5-oxo-1-phenyl-1,4,5,6,7,8-hexahydroquinoline-3-carboxylate]",inhibition at 10 µM,A498,< 10%
same,inhibition at 10 µM,MCF7,16%
same,inhibition at 10 µM,PC-3,32%
same,inhibition at 10 µM,IGROV1,< 10%
same,inhibition at 10 µM,HOP-92,< 10%
same,inhibition at 10 µM,SW-620,< 10%
same,inhibition at 10 µM,SK-MEL-2,< 10%
same,inhibition at 10 µM,LOX IMVI,11%
same,inhibition at 10 µM,OVCAR-3,< 10%
same,inhibition at 10 µM,MDA-MB-468,< 10%
same,inhibition at 10 µM,SR,34%
same,inhibition at 10 µM,ACHN,12%
same,inhibition at 10 µM,OVCAR-8,< 10%
same,inhibition at 10 µM,COLO 205,< 10%
same,inhibition at 10 µM,CCRF-CEM,11%
same,inhibition at 10 µM,OVCAR-4,< 10%
same,inhibition at 10 µM,OVCAR-5,< 10%
same,inhibition at 10 µM,UO-31,< 10%
same,inhibition at 10 µM,HS 578T,< 10%
same,melting point,,164 to 166 °C
same,inhibition at 10 µM,BT-549,< 10%
same,inhibition at 10 µM,UACC-257,< 10%
same,inhibition at 10 µM,MOLT-4,22%
same,inhibition at 10 µM,U251,< 10%
same,inhibition at 10 µM,HCT-116,16%
same,inhibition at 10 µM,NCI-H226,12%
same,inhibition at 10 µM,K-562,16%
same,inhibition at 10 µM,MALME-3M,< 10%
